Several values for one entry are separate records, joined by “and”; a condition that tells them apart may be missing. Equal entries are not always repeated.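 All cell lines were grown in 96-well plates and treated with compound for 48 hours. Here, GI50 denotes the concentration required for 50% inhibition of growth. TGI: concentration producing complete growth inhibition.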
Tests used:
Assay in all cases: NCI tumour cell line growth inhibition, 48 h
[1] = test system: 786-0 renal
[2] = test system: ACHN renal
[3] = test system: COLO 205 colon
[4] = test system: EKVX NSCLC
[5] = test system: LOX IMVI melanoma
[6] = test system: SF-295 CNS
[7] = test system: SF-539 CNS
[8] = test system: SK-MEL-2 melanoma
[9] = test system: SN12C renal
[10] = test system: T-47D breast

| Compound | TGI [1] | TGI [2] | TGI [3] | TGI [4] | TGI [5] | TGI [6] | TGI [7] | TGI [8] | TGI [9] | TGI [10] | GI50 [3] | GI50 [4] | GI50 [5] | GI50 [8] | GI50 [9] |
| --- | --- | --- | --- | --- | --- | --- | --- | --- | --- | --- | --- | --- | --- | --- | --- |
| CN(CC(=O)O)Cc1c(O)c(Cl)cc(Cl)c1Cl | > 100 µM | > 100 µM | > 100 µM | > 100 µM | > 100 µM | > 100 µM | > 100 µM | > 100 µM | > 100 µM | > 100 µM | – | – | – | – | – |
| OC[C@H]1NC[C@@H](O)[C@@H](O)[C@H]1O | – | – | > 100 µM | – | > 100 µM | > 100 µM | – | > 100 µM | > 100 µM | > 100 µM | – | – | – | – | – |
| CSc1nc(CO)c(CO)n1C | – | – | > 100 µM | > 100 µM | > 100 µM | > 100 µM | > 100 µM | > 100 µM | > 100 µM | – | – | – | – | – | – |
| CCCCN1C(=O)c2c(Br)sc(Br)c2C1=O | > 100 µM | > 100 µM | 39.1 µM | > 100 µM | > 100 µM | > 100 µM | 69.1 µM | > 100 µM | 95.8 µM | > 100 µM | – | – | – | – | – |
| Cc1[nH]c(=O)[nH]c(=O)c1/C=C/C(=O)NC(CO)CS(=O)CS(C)=O (stereo unspecified) | – | – | 132 µM | 66.4 µM | 86.9 µM | 77.5 µM | 51.5 µM | 59.2 µM | 91.5 µM | – | – | – | – | – | – |
| COc1ccccc1CC(C)N (stereo unspecified) | > 100 µM | > 100 µM | > 100 µM | > 100 µM | > 100 µM | > 100 µM | > 100 µM | > 100 µM | > 100 µM | – | – | – | – | – | – |
| COc1ccc(-c2nc3c(nc2-c2ccc(OC)cc2)C(N)=NS(=O)(=O)N3)cc1 | > 100 µM | > 100 µM | > 100 µM | > 100 µM | > 100 µM | > 100 µM | > 100 µM | > 100 µM | > 100 µM | – | – | – | – | – | – |
| CCOC(=O)Cn1c2ccc(Br)cc2c2nc3ccccc3nc21 | > 100 µM | > 100 µM | > 100 µM | – | > 100 µM | > 100 µM | – | > 100 µM | > 100 µM | > 100 µM | – | – | – | – | – |
| Nc1[nH]c(=S)nc2nc3c(c(-c4ccccc4)c12)CCCC3 | – | > 100 µM | > 100 µM | > 100 µM | > 100 µM | > 100 µM | > 100 µM | – | > 100 µM | > 100 µM | – | – | – | – | – |
| CC1C(=O)CC(c2cccs2)N(N=O)C1c1cccs1 (stereo unspecified) | – | – | > 100 µM | > 100 µM | > 100 µM | > 100 µM | > 100 µM | > 92.3 µM | > 100 µM | – | – | – | – | – | – |
| COC(=O)C1=C(C)N2CCSC2(C)C(C(=O)OC)C1c1cccc(Cl)c1 (stereo unspecified) | – | > 100 µM | 35.4 µM | 42.1 µM | – | 34 µM | 24.9 µM | 34.2 µM | – | – | – | – | – | – | – |
| NC(CCOCCP(=O)(O)CCC1C=CC=CC1)C(=O)O (stereo unspecified) | – | > 100 µM | > 100 µM | > 100 µM | > 100 µM | > 100 µM | > 100 µM | > 100 µM | > 100 µM | > 100 µM | – | – | – | – | – |
| CCN(CC)CC[n+]1ccc2c(C)c3[nH]c4ccc(O)cc4c3c(C)c2c1 | > 40.7 µM | 16.5 µM | 17.4 µM and 31 µM | 38.8 µM and 14.8 µM | 44 µM and 58.3 µM | 30.1 µM and 28.4 µM | 19 µM and 31.8 µM | 32 µM and 54.2 µM | 6.42 µM and 3.25 µM | 12.3 µM | 2.6 µM | 2.03 µM | 6.73 µM | 20.8 µM | 0.211 µM |
| CCc1n[nH]c(=O)n1/N=C(\C)c1ccc([N+](=O)[O-])cc1 | > 100 µM | – | > 100 µM | > 100 µM | > 100 µM | > 100 µM | – | > 100 µM | > 100 µM | > 100 µM | – | – | – | – | – |
| CCOC(=O)CCC(C(=O)OCC)n1nc2ccc(Nc3c(C)[n+]([O-])c4cc(F)c(OCC)cc4[n+]3[O-])cc2n1 (stereo unspecified) | 71.5 µM | > 100 µM | > 100 µM | 98.1 µM | > 100 µM | > 100 µM | 63.1 µM | > 100 µM | > 100 µM | > 100 µM | – | – | – | – | – |
| N#CC1=C2SCCN2C(=O)C(C#N)C12CCCCC2 (stereo unspecified) | > 100 µM | > 100 µM | > 100 µM | > 100 µM | > 100 µM | > 100 µM | > 100 µM | > 100 µM | > 100 µM | > 100 µM | – | – | – | – | – |
| COc1ccc(NC(C)=O)cc1N1C(=O)/C(=C\c2ccccc2)SC1c1cc(OC)c(OC)c(OC)c1 (stereo unspecified) | 49.2 µM | > 100 µM | > 100 µM | > 100 µM | 34.5 µM | > 100 µM | 45.5 µM | > 100 µM | > 100 µM | > 100 µM | – | – | – | – | – |
| CN(C)CCNC(=O)c1cc(Cl)cc2cc3ccccc3nc12 | – | – | 1.66 µM | 4.81 µM | 2.6 µM | 2.85 µM | 3.84 µM | 3.76 µM | 6.9 µM | – | – | – | – | – | – |
| C=C(C)[C@@H]1CCC2=C[C@H](C/C(C)=C\C3=CC(C)=C(O3)[C@H]1O)OC2=O | > 100 µM | > 100 µM | > 100 µM | > 100 µM | > 100 µM | > 100 µM | > 100 µM | > 100 µM | > 100 µM | > 100 µM | – | – | – | – | – |

Source: PubChem BioAssay (NCI)
